Results as given in patent publication US4011207A, “Des-(Ala^1, Gly^2,Lys^4 -Srif, Des-(Ala^1, Gly^2, Lys^4)-D-Trp^8 -Srif and intermediates” (American Home Products Corporation, priority 1976, dated 1977).
Structures can show the parent of a compound that is named as a salt. Where a SMILES comes first, the peptide text is derived from it. Bridges are numbered along the chain shown (N, C = ends).

Legend:
Format in all cases: in vivo
[1] = tested on: growth hormone; experiment: Growth hormone level by radioimmunoassay in nembutal-treated rats after subcutaneous injection
Description: (§1) The growth hormone activity of the compound of Example 2 was determined by injecting rats weighing about 150 g. first with nembutal intraperitoneally at a dose of 50 mg/kg then after 5 minutes injecting the rats subcutaneously with a solution of the compound of Example 2 in saline at a dose of 100 m.g. per rat. Blood samples are taken 15 minutes after injection with the compound of Example 2 and the growth hormone level determined by radioimmunoassay.
(§2) The activity of the product of Example 3 was determined by the same technique as the compound of Example 2. The dose given the test animals was 1 mg/kg. Growth hormone concentration was reduced to 28±4 ng/ml from the control level of 75±16 (p<0.01). The insulin concentration in micro units per milliliter was reduced marginally to 168±13 from the control level of 208±11 (p>0.05). The glucagon concentration in pico grams per milliliter was not effected, being 31±3 in the treated animals as opposed to 37±2 in the control animals.

[2] = tested on: insulin; experiment: Insulin concentration in rats, same technique; conditions: dose 1 mg/kg, control level 208±11 (p>0.05), reduced marginally
Description: as §1, §2

[3] = tested on: glucagon; experiment: Glucagon concentration in rats, same technique; conditions: dose 1 mg/kg, control 37±2, not effected
Description: as §1, §2

Compound	Growth hormone concentration ([1]; rats, dose 1 mg/kg, same technique, control level 75±16 (p<0.01)) [ng/mL]	insulin concentration [2]	glucagon concentration [3] [pico grams per milliliter]	growth hormone level ([1]; rats about 150 g, nembutal 50 mg/kg i.p., compound s.c. in saline at 100 m.g. per rat, blood 15 minutes after injection, control 212±26 ng/ml) [ng/mL]
N-tert-Butyloxycarbonyl-S-p-methoxybenzyl-L-cysteinyl-L-asparaginyl-L-phenylalanyl-L-phenylalanyl-D-tryptophyl-ε-2-chlorobenzyloxycarbonyl-L-lysyl-O-benzyl-L-threonyl-L-phenylalanyl-O-benzyl-L-threonyl-O-benzyl-L-seryl-S-p-methoxybenzyl-L-cysteinyl-hydroxymethyl polystyrene [Example 3]	28 ± 4	168±13 micro units per milliliter	31±3	
C[C@@H](O)[C@@H]1NC(=O)[C@H](Cc2ccccc2)NC(=O)[C@H]([C@@H](C)O)NC(=O)[C@H](CCCCN)NC(=O)[C@H](Cc2c[nH]c3ccccc23)NC(=O)[C@H](Cc2ccccc2)NC(=O)[C@H](Cc2ccccc2)NC(=O)[C@H](CC(N)=O)NC(=O)[C@@H](N)CSSC[C@@H](C(=O)O)NC(=O)[C@H](CO)NC1=O [Example 2, L-Cysteinyl-L-asparaginyl-L-phenylalanyl-L-phenylalanyl-L-tryptophyl-L-lysyl-L-threonyl-L-phenylalanyl-L-threonyl-L-seryl-L-cysteine- (1,11 cyclic disulfide), diacetate salt] (H-CNFFWKTFTSC-OH; disulfide 1-11)				103 ± 13
